Laboratory results as given in PubChem BioAssay AID1963451 (Molecular Pharmacology Branch, DTP, NCI, 2024).

Test system: 521955-158-R6-J3-PDC complex spheroid growth, % test/control
Assay: Anticancer human tumor 521955-158-R6-J3-PDC patient-derived pancreatic carcinoma cell line growth inhibition [Asc]
Conditions: for IC50: curve of first compound; for viability, T/C: stronger effect = lower value
How it was run: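 Tumor cells were grown as complex spheroids with human endothelial cells (HUVEC) and human mesenchymal stem cells as stroma. Agents were tested alone and in combination, in half-log steps down from the clinical Cmax, or from 10 microM where Cmax was unknown.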

[1] = second compound 0.0316 µM, first compound 0.000316 µM
[2] = second compound 0.0316 µM, first compound 0.001 µM
[3] = second compound 0.0316 µM, first compound 0.00316 µM
[4] = second compound 0.0316 µM, first compound 0.01 µM
[5] = second compound 0.0316 µM, first compound 0.0316 µM
[6] = second compound 0.0316 µM, first compound 0.1 µM
[7] = second compound 0.1 µM, first compound 0.000316 µM
[8] = second compound 0.1 µM, first compound 0.001 µM
[9] = second compound 0.1 µM, first compound 0.00316 µM
[10] = second compound 0.1 µM, first compound 0.01 µM
[11] = second compound 0.1 µM, first compound 0.0316 µM
[12] = second compound 0.1 µM, first compound 0.1 µM
[13] = second compound 0.316 µM, first compound 0.000316 µM
[14] = second compound 0.316 µM, first compound 0.001 µM
[15] = second compound 0.316 µM, first compound 0.00316 µM
[16] = second compound 0.316 µM, first compound 0.01 µM
[17] = second compound 0.316 µM, first compound 0.0316 µM
[18] = second compound 0.316 µM, first compound 0.1 µM
[19] = second compound 1 µM, first compound 0.000316 µM
[20] = second compound 1 µM, first compound 0.001 µM
[21] = second compound 1 µM, first compound 0.00316 µM
[22] = second compound 1 µM, first compound 0.01 µM
[23] = second compound 1 µM, first compound 0.0316 µM
[24] = second compound 1 µM, first compound 0.1 µM
[25] = second compound 3.16 µM, first compound 0.000316 µM
[26] = second compound 3.16 µM, first compound 0.001 µM
[27] = second compound 3.16 µM, first compound 0.00316 µM
[28] = second compound 3.16 µM, first compound 0.01 µM
[29] = second compound 3.16 µM, first compound 0.0316 µM
[30] = second compound 3.16 µM, first compound 0.1 µM
[31] = second compound 10 µM, first compound 0.000316 µM
[32] = second compound 10 µM, first compound 0.001 µM
[33] = second compound 10 µM, first compound 0.00316 µM
[34] = second compound 10 µM, first compound 0.01 µM
[35] = second compound 10 µM, first compound 0.0316 µM
[36] = second compound 10 µM, first compound 0.1 µM
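Also: spheroids exposed to compounds for 7 days.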
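For viability, T/C in this document: 100% = DMSO vehicle control wells.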

Q: What does the source list for `NC1CCC(NC2CC2c2ccccc2)CC1` (stereo unspecified) + Cc1c(S(C)(=O)=O)c(-c2cc(F)cc(N3CCN(c4ccc(NS(=O)(=O)c5ccc(NC(CCN6CCC(C(=O)OCCCP(=O)(O)O)CC6)CSc6ccccc6)c(S(=O)(=O)C(F)(F)F)c5)cc4)CC3)c2)c(-c2ccc(Cl)cc2)n1C(C)C?
A: IC50 (second compound 0.0316 µM): > 0.1 µM; IC50 (second compound 0.1 µM): > 0.1 µM; IC50 (second compound 0.316 µM): < 0.000316 µM; IC50 (second compound 1 µM): < 0.000316 µM; IC50 (second compound 3.16 µM): < 0.000316 µM; IC50 (second compound 10 µM): < 0.000316 µM; viability, T/C [1]: 83.7%; viability, T/C [2]: 97.1%; viability, T/C [3]: 80.8%; viability, T/C [4]: 92.7%; viability, T/C [5]: 96.6%; viability, T/C [6]: 90.4%; viability, T/C [7]: 97.7%; viability, T/C [8]: 94.7%; viability, T/C [9]: 87.4%; viability, T/C [10]: 74.8%; viability, T/C [11]: 79.1%; viability, T/C [12]: 73.3%; viability, T/C [13]: 47.1%; viability, T/C [14]: 51.2%; viability, T/C [15]: 55.4%; viability, T/C [16]: 61.9%; viability, T/C [17]: 43.9%; viability, T/C [18]: 63.8%; viability, T/C [19]: 29%; viability, T/C [20]: 36.1%; viability, T/C [21]: 38.5%; viability, T/C [22]: 29.1%; viability, T/C [23]: 45.4%; viability, T/C [24]: 36.6%; viability, T/C [25]: 16.8%; viability, T/C [26]: 19.4%; viability, T/C [27]: 20%; viability, T/C [28]: 20.5%; viability, T/C [29]: 20.6%; viability, T/C [30]: 18.4%; viability, T/C [31]: 16.8%; viability, T/C [32]: 11.2%; viability, T/C [33]: 16.9%; viability, T/C [34]: 11.9%; viability, T/C [35]: 11.8%; viability, T/C [36]: 11.5%

Q: For `CCN1C(C(=O)NC23CCC(C(=O)O)(CC2)CC3)C(c2cccc(Cl)c2F)C2(C(=O)Nc3cc(Cl)ccc32)C12CCCCC2` (stereo unspecified) + CNC(C)C(=O)NC1CN(S(=O)(=O)c2cccc(S(=O)(=O)N3CCC4CCC(C(=O)NC(c5ccccc5)c5ccccc5)N4C(=O)C(NC(=O)C(C)NC)C3)c2)CCC2CCC(C(=O)NC(c3ccccc3)c3ccccc3)N2C1=O, which IC50 (second compound 0.00316 µM) is on record?
A: Its IC50 is over 3 µM.

Q: What about the IC50 (second compound 0.01 µM) of the same compound?
A: The IC50 was over 3 µM.

Q: What about the IC50 (second compound 0.0316 µM) of the same compound?
A: Its IC50 is over 3 µM.

Q: What about the IC50 (second compound 0.1 µM) of the same compound?
A: Its IC50 is over 3 µM.

Q: And the IC50 (second compound 0.316 µM)?
A: Its IC50 is over 3 µM.

Q: And the IC50 (second compound 1 µM)?
A: Its IC50 is over 3 µM.

Q: What about the viability, T/C (second compound 0.00316 µM, first compound 0.00949 µM) of the same compound?
A: Its viability, T/C is 110%.

Q: What about the viability, T/C (second compound 0.00316 µM, first compound 0.03 µM) of the same compound?
A: The viability, T/C was 110%.

Q: And the viability, T/C (second compound 0.00316 µM, first compound 0.0949 µM)?
A: Its viability, T/C is 89.7%.

Q: What about the viability, T/C (second compound 0.00316 µM, first compound 0.3 µM) of the same compound?
A: Its viability, T/C is 111%.

Q: What about the viability, T/C (second compound 0.00316 µM, first compound 0.949 µM) of the same compound?
A: The viability, T/C was 99.5%.

Q: And the viability, T/C (second compound 0.00316 µM, first compound 3 µM)?
A: Its viability, T/C is 97.5%.

Q: What about the viability, T/C (second compound 0.01 µM, first compound 0.00949 µM) of the same compound?
A: The viability, T/C was 111%.

Q: And the viability, T/C (second compound 0.01 µM, first compound 0.03 µM)?
A: Its viability, T/C is 90.1%.

Q: And the viability, T/C (second compound 0.01 µM, first compound 0.0949 µM)?
A: The viability, T/C was 99.4%.

Q: And the viability, T/C (second compound 0.01 µM, first compound 0.3 µM)?
A: Its viability, T/C is 98.8%.

Q: What about the viability, T/C (second compound 0.01 µM, first compound 0.949 µM) of the same compound?
A: Its viability, T/C is 102%.

Q: What about the viability, T/C (second compound 0.01 µM, first compound 3 µM) of the same compound?
A: The viability, T/C was 103%.

Q: And the viability, T/C (second compound 0.0316 µM, first compound 0.00949 µM)?
A: Its viability, T/C is 106%.

Q: What about the viability, T/C (second compound 0.0316 µM, first compound 0.03 µM) of the same compound?
A: Its viability, T/C is 78.3%.

Q: And the viability, T/C (second compound 0.0316 µM, first compound 0.0949 µM)?
A: The viability, T/C was 91.3%.

Q: What about the viability, T/C (second compound 0.0316 µM, first compound 0.3 µM) of the same compound?
A: Its viability, T/C is 96.3%.

Q: What about the viability, T/C (second compound 0.0316 µM, first compound 0.949 µM) of the same compound?
A: The viability, T/C was 85.9%.

Q: And the viability, T/C (second compound 0.0316 µM, first compound 3 µM)?
A: The viability, T/C was 85.3%.

Q: What about the viability, T/C (second compound 0.1 µM, first compound 0.00949 µM) of the same compound?
A: The viability, T/C was 86.8%.

Q: What about the viability, T/C (second compound 0.1 µM, first compound 0.03 µM) of the same compound?
A: The viability, T/C was 92.4%.

Q: What about the viability, T/C (second compound 0.1 µM, first compound 0.0949 µM) of the same compound?
A: The viability, T/C was 81.9%.

Q: And the viability, T/C (second compound 0.1 µM, first compound 0.3 µM)?
A: Its viability, T/C is 92%.

Q: And the viability, T/C (second compound 0.1 µM, first compound 0.949 µM)?
A: Its viability, T/C is 93.3%.

Q: And the viability, T/C (second compound 0.1 µM, first compound 3 µM)?
A: The viability, T/C was 96.4%.

Q: And the viability, T/C (second compound 0.316 µM, first compound 0.00949 µM)?
A: Its viability, T/C is 70.1%.

Q: What about the viability, T/C (second compound 0.316 µM, first compound 0.03 µM) of the same compound?
A: The viability, T/C was 82.4%.

Q: And the viability, T/C (second compound 0.316 µM, first compound 0.0949 µM)?
A: Its viability, T/C is 97.7%.

Q: What about the viability, T/C (second compound 0.316 µM, first compound 0.3 µM) of the same compound?
A: The viability, T/C was 83.3%.

Q: And the viability, T/C (second compound 0.316 µM, first compound 0.949 µM)?
A: Its viability, T/C is 82.1%.

Q: What about the viability, T/C (second compound 0.316 µM, first compound 3 µM) of the same compound?
A: The viability, T/C was 88.2%.

Q: What about the viability, T/C (second compound 1 µM, first compound 0.00949 µM) of the same compound?
A: Its viability, T/C is 85.2%.

Q: What about the viability, T/C (second compound 1 µM, first compound 0.03 µM) of the same compound?
A: The viability, T/C was 102%.

Q: And the viability, T/C (second compound 1 µM, first compound 0.0949 µM)?
A: Its viability, T/C is 90.1%.

Q: What about the viability, T/C (second compound 1 µM, first compound 0.3 µM) of the same compound?
A: The viability, T/C was 83%.

Q: And the viability, T/C (second compound 1 µM, first compound 0.949 µM)?
A: Its viability, T/C is 84.9%.

Q: And the viability, T/C (second compound 1 µM, first compound 3 µM)?
A: Its viability, T/C is 96.4%.

Q: What does the source list for `Cn1ncnc1[C@H]1c2n[nH]c(=O)c3cc(F)cc(c23)N[C@@H]1c1ccc(F)cc1` + Cc1c(S(C)(=O)=O)c(-c2cc(F)cc(N3CCN(c4ccc(NS(=O)(=O)c5ccc(NC(CCN6CCC(C(=O)OCCCP(=O)(O)O)CC6)CSc6ccccc6)c(S(=O)(=O)C(F)(F)F)c5)cc4)CC3)c2)c(-c2ccc(Cl)cc2)n1C(C)C?
A: IC50 (second compound 0.0316 µM): > 0.1 µM; IC50 (second compound 0.1 µM): > 0.1 µM; IC50 (second compound 0.316 µM): 0.00481 µM; IC50 (second compound 1 µM): < 0.000316 µM; IC50 (second compound 3.16 µM): < 0.000316 µM; IC50 (second compound 10 µM): < 0.000316 µM; viability, T/C [1]: 84.8%; viability, T/C [2]: 92.7%; viability, T/C [3]: 70.5%; viability, T/C [4]: 82%; viability, T/C [5]: 77%; viability, T/C [6]: 68.9%; viability, T/C [7]: 86.3%; viability, T/C [8]: 75.1%; viability, T/C [9]: 75.3%; viability, T/C [10]: 82.3%; viability, T/C [11]: 61%; viability, T/C [12]: 67.6%; viability, T/C [13]: 53.4%; viability, T/C [14]: 54.2%; viability, T/C [15]: 52.5%; viability, T/C [16]: 44.4%; viability, T/C [17]: 40.8%; viability, T/C [18]: 51.5%; viability, T/C [19]: 35.1%; viability, T/C [20]: 32.7%; viability, T/C [21]: 41.4%; viability, T/C [22]: 29.8%; viability, T/C [23]: 35%; viability, T/C [24]: 40.9%; viability, T/C [25]: 23%; viability, T/C [26]: 24.3%; viability, T/C [27]: 21.1%; viability, T/C [28]: 19.9%; viability, T/C [29]: 20.8%; viability, T/C [30]: 16.4%; viability, T/C [31]: 14.8%; viability, T/C [32]: 17.9%; viability, T/C [33]: 26.6%; viability, T/C [34]: 15.5%; viability, T/C [35]: 15%; viability, T/C [36]: 11%
